Results on 20 compounds are retold here after patent US10238743B2 (Merck Sharp & Dohme Corp., priority 2014, dated 2019).

A word on the Ki: it is the equilibrium dissociation constant of an inhibitor or competing ligand from its target.

SMILES strings stand for the structures.

Experiment [1] has as its target soluble human BACE1 catalytic domain (Homo sapiens (Human), UniProt P56817). Briefly: BACE1 HTRF FRET Assay. It counts as biochemical. The note with it: Ki calculated from IC50 using the Cheng-Prusoff equation; QSY7-APPswe-Eu substrate, pH 5.0; read-out: BACE-1 Ki. An excerpt:
Na^+-Acetate pH 5.0; 1% Brij-35; Glycerol; Dimethyl Sulfoxide (DMSO); Recombinant human soluble BACE1 catalytic domain (>95% pure); APP Swedish mutant peptide substrate (QSY7-APP^swe-Eu): QSY7-EISEVNLDAEFC-Europium-amide.
A homogeneous time-resolved FRET assay can be used to determine IC50 values for inhibitors of the soluble human BACE1 catalytic domain. This assay monitors the increase of 620 nm fluorescence that resulted from BACE1 cleavage of an APPswedish APP^swe mutant peptide FRET substrate (QSY7-EISEVNLDAEFC-Europium-amide). This substrate contains an N-terminal QSY7 moiety that serves as a quencher of the C-terminal Europium fluorophore (620 nm Em). In the absence of enzyme activity, 620 nm fluorescence is low in the assay and increased linearly over 3 hours in the presence of uninhibited BACE1 enzyme. Inhibition of BACE1 cleavage of the QSY7-APP^swe-Eu substrate by inhibitors is manifested as a suppression of 620 nm fluorescence.
Varying concentrations of inhibitors at 3× the final desired concentration in a volume of 10 ul are preincubated with purified human BACE1 catalytic domain (3 nM in 10 μl) for 30 minutes at 30° C. in reaction buffer containing 20 mM Na-Acetate pH 5.0, 10% glycerol, 0.1% Brij-35 and 7.5% DSMO. Reactions are initiated by addition of 10 μl of 600 nM QSY7-APP^swe-Eu substrate (200 nM final) to give a final reaction volume of 30 μl in a 384 well Nunc HTRF plate. The reactions are incubated at 30° C. for 1.5 hours. The 620 nm fluorescence is then read on a Rubystar HTRF plate reader (BMG Labtechnologies) using a 50 millisecond delay followed by a 400 millisecond acquisition time window. Inhibitor IC50 values are derived from non-linear regression analysis of concentration response curves. Ki values are then calculated from IC50 values using the Cheng-Prusoff equation using a previously determined […] of 8 μM for the QSY7-APP^swe-Eu substrate at BACE1.

The target in experiment [2] is purified human autoBACE-2 (Homo sapiens (Human), UniProt Q9Y5Z0). In words: BACE-2 Assay (BACE-HTRF assay). It counts as biochemical. The note with it: Ki calculated from IC50 using the Cheng-Prusoff equation; QSY7-EISEVNLDAEFC-Eu-amide substrate, pH 5.0. Here is the method: Inhibitor IC50s at purified human autoBACE-2 are determined in a time-resolved endpoint proteolysis assay that measures hydrolysis of the QSY7-[…]-Eu-amide FRET peptide substrate (BACE-HTRF assay). […] DMSO is present at 5% final concentration in the assay. Following laser excitation of sample wells at 320 nm, the fluorescence signal at 620 nm is collected for 400 ms following a 50 μs delay on a RUBYstar HTRF plate reader (BMG Labtechnologies). Raw RFU data is normalized to maximum (1.0 nM BACE/DMSO) and minimum (no enzyme/DMSO) RFU values. […] The Ki values are calculated from the IC50 using the Cheng-Prusoff equation.
Sequence of purified human autoBACE-2 (Q9Y5Z0 63-473 limits assumed): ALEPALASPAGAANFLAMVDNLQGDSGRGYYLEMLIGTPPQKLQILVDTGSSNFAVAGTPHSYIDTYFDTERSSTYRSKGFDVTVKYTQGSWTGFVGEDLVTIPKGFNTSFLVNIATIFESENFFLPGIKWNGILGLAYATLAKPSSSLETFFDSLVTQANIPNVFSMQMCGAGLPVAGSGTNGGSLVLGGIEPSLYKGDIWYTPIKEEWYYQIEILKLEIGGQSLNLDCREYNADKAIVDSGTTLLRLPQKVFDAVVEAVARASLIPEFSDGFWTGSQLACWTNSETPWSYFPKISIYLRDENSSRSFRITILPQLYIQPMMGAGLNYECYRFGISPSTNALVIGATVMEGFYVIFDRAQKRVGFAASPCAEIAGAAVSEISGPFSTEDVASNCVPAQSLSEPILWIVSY

Sequence of soluble human BACE1 catalytic domain (P56817 75-416): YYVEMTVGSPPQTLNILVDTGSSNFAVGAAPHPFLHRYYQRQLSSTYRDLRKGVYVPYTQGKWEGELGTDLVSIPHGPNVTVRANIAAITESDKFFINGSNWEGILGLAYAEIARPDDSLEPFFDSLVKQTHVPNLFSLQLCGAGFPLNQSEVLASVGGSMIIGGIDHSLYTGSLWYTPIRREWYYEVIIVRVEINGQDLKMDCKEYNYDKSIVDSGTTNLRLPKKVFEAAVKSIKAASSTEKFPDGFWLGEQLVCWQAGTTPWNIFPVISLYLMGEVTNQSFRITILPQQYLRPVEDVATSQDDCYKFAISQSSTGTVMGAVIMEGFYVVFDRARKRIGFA

On to `COc1cnc2c(Nc3ccc4c(c3)[C@@]3(C)NC(=N)N(C)S(=O)(=O)[C@H]3CCC4)nccc2n1` [Example 44, (4aS,11bR)-2-imino-10-((2-methoxypyrido[3,4-b]pyrazin-5-yl)amino)-3,11b-dimethyl-1,2,3,4a,5,6,7,11b-octahydrobenzo[6,7]cyclohepta[1,2-e][1,2,4]-thiadiazine 4,4-dioxide], for which the figures for the Ki in experiment [1] and in experiment [2] were 45 nM and 173 nM, respectively.

`COc1cnc(C(=O)Nc2ccc3c(c2)[C@@]2(C)NC(=N)N(C)S(=O)(=O)[C@H]2CCC3)c(C)c1` [Example 32, N-((4aS,11bR)-2-imino-3,11b-dimethyl-4,4-dioxido-1,2,3,4a,5,6,7,11b-octahydrobenzo[6,7]cyclohepta[1,2-e][1,2,4]thiadiazin-10-yl)-5-methoxy-3-methylpicolinamide]: the results for the Ki in experiment [1] and in experiment [2] were 27 nM and 34 nM, respectively.

Take `COc1cnc(C(=O)Nc2ccc3c(c2)[C@@]2(C)NC(=N)N(C)S(=O)(=O)[C@H]2CCC3)c(C)n1` [Example 33]: the Ki in experiment [1] was 48 nM; in experiment [2], 86 nM.

Consider `CN1C(=N)N[C@]2(C)c3cc(NC(=O)c4ncc(Cl)cc4F)ccc3CCC[C@@H]2S1(=O)=O` [Example 25, 5-chloro-3-fluoro-N-((4aS,11bR)-2-imino-3,11b-dimethyl-4,4-dioxido-1,2,3,4a,5,6,7,11b-octahydrobenzo[6,7]cyclohepta[1,2-e][1,2,4]thiadiazin-10-yl)picolinamide], for which the Ki is 7 nM in experiment [1] and 5 nM in experiment [2].

Regarding `CN1C(=N)N[C@]2(C)c3cc(NC4CCCC4)ccc3OCC[C@@H]2S1(=O)=O` [Example 47, (4aS,11bR)-10-(cyclopentylamino)-2-imino-3,11b-dimethyl-2,3,4a,5,6,11b-hexahydro-1H-benzo[2,3]oxepino[4,5-e][1,2,4]thiadiazine 4,4-dioxide], the Ki is 348 nM in experiment [1] and 716 nM in experiment [2].

As to `CCCNc1ccc2c(c1)[C@@]1(C)NC(=N)N(C)S(=O)(=O)[C@H]1CCO2` [Example 49, (4aS,11bR)-2-imino-3,11b-dimethyl-10-(propylamino)-2,3,4a,5,6,11b-hexahydro-1H-benzo[2,3]oxepino[4,5-e][1,2,4]thiadiazine 4,4-dioxide], the inhibitory constant (Ki) in experiment [1] is 918 nM; in experiment [2] it was 1980 nM.

Regarding `CN1C(=N)N[C@]2(C)c3cc(NC(=O)c4ncc(F)cc4F)ccc3OCC[C@@H]2S1(=O)=O` [Example 15], the results for the Ki in experiment [1] and in experiment [2] were 10 nM and 6 nM, respectively.

Turning to `Cc1cnc(C(=O)Nc2ccc3c(c2)[C@@]2(C)NC(=N)N(C)S(=O)(=O)[C@@H]2CCC3)cn1` [Example 40, N-((4aR,11bR)-2-imino-3,11b-dimethyl-4,4-dioxido-1,2,3,4a,5,6,7,11b-octahydrobenzo[6,7]cyclohepta[1,2-e][1,2,4]thiadiazin-10-yl)-5-methylpyrazine-2-carboxamide], the Ki in experiment [1] was 1390 nM; in experiment [2] it was 2710 nM.

Consider `CN1C(=N)N[C@]2(C)c3cc(NC(=O)c4ccc(F)cn4)ccc3CCC[C@@H]2S1(=O)=O` [Example 28, 5-fluoro-N-((4aS,11bR)-2-imino-3,11b-dimethyl-4,4-dioxido-1,2,3,4a,5,6,7,11b-octahydrobenzo[6,7]cyclohepta[1,2-e][1,2,4]thiadiazin-10-yl)picolinamide], for which the Ki in experiment [1] was 18 nM; in experiment [2], 7 nM.

Take `Cc1nc(C(=O)Nc2ccc3c(c2)[C@@]2(C)NC(=N)N(C)S(=O)(=O)[C@@H]2CCO3)c(C)o1` [Example 3, N-((4aR,11bR)-2-imino-3,11b-dimethyl-4,4-dioxido-2,3,4a,5,6,11b-hexahydro-1H-benzo[2,3]oxepino[4,5-e][1,2,4]thiadiazin-10-yl)-2,5-dimethyloxazole-4-carboxamide]: the figures for the Ki in experiment [1] and in experiment [2] were 265 nM and 384 nM, respectively.

On to `Cc1ccc(C(=O)Nc2ccc3c(c2)[C@@]2(C)NC(=N)N(C)S(=O)(=O)[C@H]2CCC3)nc1` [Example 21, N-((4aS,11bR)-2-imino-3,11b-dimethyl-4,4-dioxido-1,2,3,4a,5,6,7,11b-octahydrobenzo[6,7]cyclohepta[1,2-e][1,2,4]thiadiazin-10-yl)-5-methylpicolinamide], for which the Ki in experiment [1] is 45 nM; in experiment [2], 34 nM.

With `COCC(=O)Nc1ccc2c(c1)[C@@]1(C)NC(=N)N(C)S(=O)(=O)[C@@H]1CCO2` [Example 4, N-((4aR,11bR)-2-imino-3,11b-dimethyl-4,4-dioxido-2,3,4a,5,6,11b-hexahydro-1H-benzo[2,3]oxepino[4,5-e][1,2,4]thiadiazin-10-yl)-2-methoxyacetamide], the Ki was 1360 nM in experiment [1] and 890 nM in experiment [2].

`CN1C(=N)N[C@]2(C)c3cc(NC(=O)c4ccc(OC(F)(F)F)cn4)ccc3OCC[C@@H]2S1(=O)=O` [Example 19, N-((4aS,11bR)-2-imino-3,11b-dimethyl-4,4-dioxido-2,3,4a,5,6,11b-hexahydro-1H-benzo[2,3]oxepino[4,5-e][1,2,4]thiadiazin-10-yl)-5-(trifluoromethoxy)picolinamide]: the Ki in experiment [1] is 8 nM; in experiment [2], 104 nM.

Take `CN1C(=N)N[C@]2(C)c3cc(NC(=O)c4ccc(C(F)(F)F)cn4)ccc3OCC[C@@H]2S1(=O)=O` [Example 18, N-((4aS,11bR)-2-imino-3,11b-dimethyl-4,4-thoxido-2,3,4a,5,6,11b-hexahydro-1H-benzo[2,3]oxepino[4,5-e][1,2,4]thiadiazin-10-yl)-5-(trifluoromethyl)picolinamide]: the Ki in experiment [1] is 11 nM; in experiment [2], 79 nM.

In the case of `C#CCOc1ccc(C(=O)Nc2ccc3c(c2)[C@@]2(C)NC(=N)N(C)S(=O)(=O)[C@@H]2CCO3)nc1` [Example 6, N-((4aR,11bR)-2-imino-3,11b-dimethyl-4,4-dioxido-2,3,4a,5,6,11b-hexahydro-1H-benzo[2,3]oxepino[4,5-e][1,2,4]thiadiazin-10-yl)-5-(prop-2-yn-1-yloxy)picolinamide], the Ki is 25 nM in experiment [1] and 995 nM in experiment [2].

For `COc1cnc2c(Nc3ccc4c(c3)[C@@]3(C)NC(=N)N(C)S(=O)(=O)[C@H]3CCO4)nccc2n1` [Example 41, (4aS,11bR)-2-imino-10-((2-methoxypyrido[3,4-b]pyrazin-5-yl)amino)-3,11b-dimethyl-2,3,4a,5,6,11b-hexahydro-1H-benzo[2,3]oxepino[4,5-e][1,2,4]-thiadiazine 4,4-dioxide], the Ki in experiment [1] was 60 nM; in experiment [2], 135 nM.

With `CN1C(=N)N[C@]2(C)c3cc(NC(=O)c4ccccn4)ccc3OCC[C@H]2S1(=O)=O` [Example 2, N-((4aR,11bR)-2-imino-3,11b-dimethyl-4,4-dioxido-2,3,4a,5,6,11b-hexahydro-1H-benzo[2,3]oxepino[4,5-e][1,2,4]thiadiazin-10-yl)picolinamide], the Ki in experiment [1] is 508 nM; in experiment [2], 279 nM.

On to `CN1C(=N)N[C@]2(C)c3cc(NC(=O)c4ncc(Cl)cc4F)ccc3OCC[C@@H]2S1(=O)=O` [Example 13, 5-chloro-3-fluoro-N-((4aS,11bR)-2-imino-3,11b-dimethyl-4,4-dioxido-2,3,4a,5,6,11b-hexahydro-1H-benzo[2,3]oxepino[4,5-e][1,2,4]thiadiazin-10-yl)picolinamide], for which the Ki in experiment [1] and in experiment [2] was 4 nM throughout.

Consider `COc1cnc2c(Nc3ccc4c(c3)[C@@]3(C)NC(=N)N(C)S(=O)(=O)[C@H]3CCC4)nccc2c1` [Example 46, (4aS,11bR)-2-imino-10-((3-methoxy-1,7-naphthyridin-8-yl)amino)-3,11b-dimethyl-1,2,3,4a,5,6,7,11b-octahydrobenzo[6,7]cyclohepta[1,2-e][1,2,4]-thiadiazine 4,4-dioxide], for which the Ki in experiment [1] was 108 nM; in experiment [2] it was 251 nM.

On to `COc1cnc2c(Nc3ccc4c(c3)[C@@]3(C)NC(=N)N(C)S(=O)(=O)[C@H]3CCO4)nccc2c1` [Example 43, (4aS,11bR)-2-imino-10-((3-methoxy-1,7-naphthyridin-8-yl)amino)-3,11b-dimethyl-2,3,4a,5,6,11b-hexahydro-1H-benzo[2,3]oxepino[4,5-e][1,2,4]-thiadiazine 4,4-dioxide], for which the Ki was 57 nM in experiment [1] and 148 nM in experiment [2].
